In publication PMC7618541 (Science (New York, N.Y.), 2025):

Columns and labels:
[1] = molecular target: Nudix hydrolase 5 (NUDT5) (Homo sapiens, UniProt Q9UKK9); experiment: PROTAC degradation of endogenous NUDT5 in cells, western blot, […] h; assay type: cell-based
[2] = molecular target: phosphoribosyl pyrophosphate amidotransferase (PPAT) (Homo sapiens, UniProt Q06203); experiment: GDH-coupled NADH fluorescence assay of purified PPAT; assay type: biochemical
Chain of phosphoribosyl pyrophosphate amidotransferase (PPAT) (Q06203 12-517): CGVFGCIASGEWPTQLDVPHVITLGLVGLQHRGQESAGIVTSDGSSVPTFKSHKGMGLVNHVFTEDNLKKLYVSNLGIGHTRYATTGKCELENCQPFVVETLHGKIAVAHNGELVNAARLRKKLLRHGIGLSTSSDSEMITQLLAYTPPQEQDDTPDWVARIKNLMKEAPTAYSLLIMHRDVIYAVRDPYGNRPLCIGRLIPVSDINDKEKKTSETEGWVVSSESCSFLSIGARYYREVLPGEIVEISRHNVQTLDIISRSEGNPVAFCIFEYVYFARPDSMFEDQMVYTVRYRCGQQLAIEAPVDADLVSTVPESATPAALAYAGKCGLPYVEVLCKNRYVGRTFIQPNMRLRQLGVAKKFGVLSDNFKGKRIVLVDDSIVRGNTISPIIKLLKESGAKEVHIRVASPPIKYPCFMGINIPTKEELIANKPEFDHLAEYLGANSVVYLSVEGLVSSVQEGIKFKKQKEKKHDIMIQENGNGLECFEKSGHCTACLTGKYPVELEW

Compound | PROTAC degradation of endogenous NUDT5 in cells, western blot, 20 h [1] | GDH-coupled NADH fluorescence assay of purified PPAT [2]
Cn1c(=O)c2c(nc(N3CCN(C(=O)N4CCC(CN5CCN(c6ccc7c(c6)C(=O)N(C6CCC(=O)NC6=O)C7=O)CC5)CC4)CC3)n2Cc2nnc(-c3ccc(Cl)c(Cl)c3)o2)n(C)c1=O (centres unmarked) [dNUDT5] | 100 nM | 
NC(=O)CC[C@H](N)C(=O)O [glutamine] |  | the first half reaction of PPAT reaction was assayed by monitoring the production of glutamate from glutamine
